Where a name gives a salt, the structure may show the parent alone. Read-outs that look alike come from different tables or passages of the source.
Target: T1, 5-HT1A serotonin receptor (Rattus norvegicus, UniProt P19327)
T1 sequence (P19327 1-422): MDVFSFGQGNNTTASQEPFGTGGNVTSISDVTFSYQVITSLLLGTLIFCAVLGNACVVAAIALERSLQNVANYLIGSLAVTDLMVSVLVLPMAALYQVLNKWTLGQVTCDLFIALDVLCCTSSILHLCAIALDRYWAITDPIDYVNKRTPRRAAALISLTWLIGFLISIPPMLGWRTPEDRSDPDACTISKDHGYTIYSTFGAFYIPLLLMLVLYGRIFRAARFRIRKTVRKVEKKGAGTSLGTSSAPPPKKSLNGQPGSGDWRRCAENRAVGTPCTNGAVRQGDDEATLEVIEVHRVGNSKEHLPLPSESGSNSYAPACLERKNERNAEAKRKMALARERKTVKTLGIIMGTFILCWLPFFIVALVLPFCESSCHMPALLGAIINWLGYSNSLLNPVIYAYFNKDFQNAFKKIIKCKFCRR
Test: biochemical
Type: binding

[1] = displacement of [^3 H]8-OHDPAT, read-out: 5-HT1A Binding (IC50)

| IC50 [1] | Structure (SMILES) | IC50 | other results |
| --- | --- | --- | --- |
| – | COc1ccsc1C1=CCN(CC[C@H](C(=O)N2CCCCCC2)c2ccccc2)CC1 [Example 4, (S)-1-Azepan-1-yl-4-[4-(3-methoxy-thiophen-2-yl)-1.2.3.6-tetrahydro-pyridin-1-yl]-2-phenyl-butan-1-one hydrochloride salt] | 0.2 nM | – |
| – | COc1ccsc1C1=CCN(CCC(C(=O)N2CCCCCC2)c2ccccc2)CC1 (stereo not drawn) [Example 2, 1-Azepan-1-yl-4-[4-(3-methoxy-thiophen-2-yl)-1,2,3,6-tetrahydro-pyridin-1-yl]-2-phenyl-butan-1-one] | 0.25 nM | – |
| – | O=C1CC2(CCCC2)CC(=O)N1CCCCN1CCN(c2ncccn2)CC1 [buspirone, reference compound] | – | affinity for the serotonin 5-HT1A receptor (in words) (displacement of [^3 H]8-OHDPAT): potent affinity |
| 0.7 nM | COc1ccsc1C1CCN(CC[C@H](C(=O)N2CCCCCC2)c2ccccc2)CC1 [Example 5, (2S)-1-(Azepan-1-yl)-4-[4-(3-methoxy-thiophen-2-yl)-piperidin-1-yl]-2-phenyl-butan-1-one dihydrochloride salt] | – | – |
| – | COc1ccsc1C1(O)CCN(CCC(C(=O)N2CCCCCC2)c2ccccc2)CC1 (stereo not drawn) [Example 1, 1-Azepan-1-yl-4-[4-hydroxy-4-(3-methoxy-thiophen-2-yl)-piperidin-1-yl]-2-phenyl-butan-1-one 0.75 hydroiodide] | 0.8 nM | – |
| 0.98 nM | COc1ccsc1C1CCN(CCC(C(=O)N2CCCCCC2)c2ccccc2)CC1 (stereo not drawn) [Example 3, 1-Azepan-1-yl-4-[4-(3-methoxy-thiophen-2-yl)-piperidin-1-yl]-2-phenyl-butan-1-one fumarate salt] | – | – |

Source: patent publication US5525600A, “(Thiophen-2-yl)-piperidin or tetrahydropyridin carboxamides” (American Home Products Corporation, priority 1994, dated 1996)
